Test results reported in ChEMBL document CHEMBL5352478, “Novel pyridine-containing histone deacetylase inhibitors strongly arrest proliferation, induce apoptosis and modulate miRNAs in cancer cells” (Eur J Med Chem, 2023).

Experiments:
U-937 = test: Induction of cell cycle arrest in human U-937 cells assessed as accumulation of cells in G1 phase at 5 uM for 48 hrs by PI staining based flow cytometric analysis; format: functional
HCT-116 = test: cells; format: functional, cell-based; details: Homo sapiens, HCT-116, 72 h
A549 = test: cells; format: functional, cell-based; details: Homo sapiens, A549, 72 h
K562 = test: cells; format: functional, cell-based; details: Homo sapiens, K562, 72 h

Nc1ccccc1NC(=O)c1ccc(CNC(=O)OCc2cccnc2)cc1 [ENTINOSTAT]
Activity (U-937): 70% | IC50 (HCT-116): 1060 nM | IC50 (A549): 2250 nM | IC50 (K562): 570 nM
